Experimental data reported in US5574178A, “4,6-Di-t-butyl-dihydrobenzofuran-5-ol and its derivatives” (Chugai Seiyaku Kabushiki Kaisha, priority 1992, dated 1996).

What was measured:
Assay type in all cases: biochemical
Rabbit LDL = experiment: Amount of TBARS (Cu^2+-induced oxidation of rabbit LDL); conditions: 5 μM Cu^2+
Procedure: Rabbit LDL was prepared in accordance with the method of Havel et al. [Havel, R. J. et al., J. Clin. Invest., 34, (1955)]. After adding 5 μM of Cu^2+, the mixture was warmed until a thiobarbituric acid reactive substance (TBARS) was produced. The test compounds were evaluated for their anti-oxidative action with the amount of TBARS being used as an index. [formula]

[1] = biological target: lipid peroxidation due to the autoxidation of linoleic acid; experiment: Linoleic acid-MCLA system, Test Case 4; conditions: linoleic acid 10 mM, MCLA 2 μM, 1-butanol, 37° C.; read-out: 50% inhibition concentration
Procedure: The test compounds were evaluated for their inhibitory effect against lipid peroxidation due to the autoxidation of linoleic acid.
A reaction solution was prepared by mixing linoleic acid and MCLA (2-methyl-6-(p-methoxyphenyl)-3,7-dihydroimidazo[1,2-a]pyrazin-3-one) in 1-butanol and stored in ice until use. An amount of this reaction solution was sampled in a chemiluminescence measuring cell and, immediately thereafter, the intensity of chemiluminescence due to the autoxidation of linoleic acid was measured at 37° C. in a thermostatic bath. A normal chemiluminescence intensity measurement was conducted about 2-4 min later when the chemiluminescence substantially peaked.

[2] = test system: xanthine oxidase (XOD)-hypoxanthine (HX) system (superoxide); experiment: Xanthine oxidase system (superoxide generating system); conditions: pH 7.4, 37° C.
Procedure: The test compounds were evaluated under the following conditions for their effect in a reaction due to a xanthine oxidase (XOD)-hypoxanthine (HX) system in aqueous solution.
Xanthine oxidase 0.1 U/ml
Hepes buffer solution (pH 7.4)
(§1) A reaction solution was prepared by mixing hypoxanthine and luminol in the Hepes buffer solution and stored in ice until use. After warming the reaction solution at 37° C. for about 10 min, the reaction was started by addition of the xanthine oxidase solution. A measurement was started right after the addition of xanthine oxidase and subsequent stirring; chemiluminescence intensity was normally measured right after the start of the reaction. In the experimental model, luminol-dependent chemiluminescence induced by superoxide generated by enzymatic reaction of xanthine oxidase was detected, thus enabling the measurement of the reactivity with superoxide.

[3] = test system: lactoperoxidase reaction system (singlet oxygen); experiment: Lactoperoxidase system (singlet oxygen system); conditions: pH 4.5, 37° C.
Procedure: The test compounds were evaluated under the following conditions for their effect against a lactoperoxidase reaction system.
Lactoperoxidase 10 μg/ml
Acetate buffer solution (pH 4.5)
as §1, with “hydrogen peroxide, sodium bromide” for “hypoxanthine”, “acetate” for “Hepes”, “lactoperoxidase” for “xanthine oxidase”, “was” for “was normally”, “singlet oxygen” for “superoxide”, “singlet oxygen.” for “superoxide.”

Row | Compound | TBARS produced (%) (Rabbit LDL; at 10^-5 M of compound, 10 µM) | TBARS produced (%) (Rabbit LDL; at 10^-6 M of compound, 1 µM) | IC50 [1] [µM] | Chemiluminescence intensity (% of control) ([2]; at 20 μM of compound) | Chemiluminescence intensity (% of control) ([2]; at 200 μM of compound) | Chemiluminescence intensity (% of control) ([3]; at 20 μM of compound) | Chemiluminescence intensity (% of control) ([3]; at 200 μM of compound)
1 | CC(C)(C)c1cc2c(c(C(C)(C)C)c1O)CC(Cc1ccccc1)(Cc1ccccc1)O2 [Compound k, 4,6-Di-tert-Butyl-2,2-Dibenzyl-5-Hydroxy-2,3-Dihydrobenzofuran] | 11.1 | 93.0 |  |  |  |  | 
2 | CCCOc1cc(C(C)(C)C)c(O)c(C(C)(C)C)c1C [Compound u, 2,6-Di-tert-Butyl-3-Methyl-4-Propyloxyphenol] | 47.3 | 87.7 |  |  |  |  | 
3 | CC(C)(C)c1c(O)ccc2c1CC(CO)O2 (centres unmarked) [Comparison 3, reference compound] |  |  | 54 |  |  |  | 
4 | CCC(C)c1cc2c(c(C(C)(C)C)c1O)CCO2 (centres unmarked) [Comparison 7, reference compound] |  |  | 7 | 55.8 % of control | 17.5 % of control | 86.2 % of control | 0.8 % of control
5 | Cc1cc2c(C(C)(C)C)c(O)c(C(C)(C)C)cc2o1 [Compound s, 4,6-Di-tert-Butyl-5-Hydroxy-2-Methylbenzofuran] | 39.2 | 75.7 |  |  |  |  | 
6 | CC(C)(C)c1cc2c(c(C(C)(C)C)c1O)CC1(CCCCCC1)O2 [Compound o, 4,6-Di-tert-Butyl-5-Hydroxy-2,3-Dihydrobenzofuran-2-Spiro-1'-Cycloheptane] | 9.0 | 91.2 |  |  |  |  | 
7 | CCCc1c2c(c(C(C)(C)C)c(O)c1C(C)(C)C)CC(C)(C)O2 [q, 5-Hydroxy-4,6-Di-tert-Butyl-2,2-Dimethyl-7-Propyl-2,3-Dihydrobenzofuran] | 56.8 | 97.4 | 5 |  |  | 104.0 % of control | 73.4 % of control
8 | CC(C)(C)c1cc2c(C(C)(C)C)c(O)c(C(C)(C)C)cc2o1 [Compound t, 2,4,6-Tri-tert-Butyl-5-Hydroxybenzofuran] | 68.0 | 81.7 |  |  |  |  | 
9 | CC(C)(C)c1cc2c(c(C(C)(C)C)c1O)CC(c1ccccc1)(c1ccccc1)O2 [Compound j, 4,6-Di-tert-Butyl-2,2-Diphenyl-5-Hydroxy-2,3-Dihydrobenzofuran] | 11.6 | 93.1 |  |  |  |  | 
10 | CCCCCCCCC1(CCCCCCCC)Cc2c(cc(C(C)(C)C)c(O)c2C(C)(C)C)O1 [Compound y, 4,6-Di-tert-Butyl-2,2-Di-n-Octyl-5-Hydroxy-2,3-Dihydrobenzofuran] | 72.3 | 85.4 |  | 94.2 % of control | 110.2 % of control |  | 
11 | CC(C)(C)c1cc2c(cc1O)CC(C(C)(C)C)O2 (centres unmarked) [Comparison 4, reference compound] |  |  | 42 |  |  |  | 
12 | CC(C)CCC1(CCC(C)C)Cc2c(cc(C(C)(C)C)c(O)c2C(C)(C)C)O1 [Compound z, 2,2-Diisoamyl-4,6-Di-tert-Butyl-5-Hydroxy-2,3-Dihydrobenzofuran] | 22.9 | 77.5 | 6 | 99.2 % of control | 107.5 % of control |  | 
13 | CC(C)(C)c1cc2c(c(C(C)(C)C)c1O)CC1(CCCC1)O2 [Compound m, 4,6-Di-tert-Butyl-5-Hydroxy-2,3-Dihydrobenzofuran-2-Spiro-1'-Cyclopentane] | 11.8 | 85.3 | 7 | 83.1 % of control | 89.8 % of control |  | 
14 | CC1Cc2c(cc(C(C)(C)C)c(O)c2C(C)(C)C)O1 (centres unmarked) [Compound b, 4,6-Di-tert-Butyl-5-Hydroxy-2-Methyl-2,3-Dihydrobenzofuran] | 8.9 | 53.8 |  |  |  |  | 
15 | CC1(C)Cc2c(cc(C(C)(C)C)c(O)c2C(C)(C)C)O1 [Compound c, 5-Hydroxy-4,6-Di-tert-Butyl-2,2-Dimethyl-2,3-Dihydrobenzofuran] | 9.2 | 55.3 | 7 |  |  |  | 
16 | Cc1c(OCCCOc2cc(C(C)(C)C)c(O)c(C(C)(C)C)c2C)cc(C(C)(C)C)c(O)c1C(C)(C)C [Compound w, 1,3-Bis(3,5-Di-tert-Butyl-4-Hydroxy-2-Methylphenoxy)propane] | 17.2 | 71.3 |  |  |  |  | 
17 | CCC1(CC)Cc2c(cc(C(C)(C)C)c(O)c2C(C)(C)C)O1 [Compound d, 4,6-Di-tert-Butyl-2,2-Diethyl-5-Hydroxy-2,3-Dihydrobenzofuran] | 9.4 | 76.9 |  |  |  |  | 
18 | CCCC1(CCC)Cc2c(cc(C(C)(C)C)c(O)c2C(C)(C)C)O1 [Compound e, 4,6-Di-tert-Butyl-2,2-Di-n-Propyl-5-Hydroxy-2,3-Dihydrobenzofuran] | 13.5 | 86.3 |  |  |  |  | 
19 | CC(C)(C)c1cc2occc2c(C(C)(C)C)c1O [Compound r, 4,6-Di-tert-Butyl-5-Hydroxybenzofuran] | 30.1 | 74.2 |  |  |  |  | 
20 | CC(C)(C)c1cc2c(c(C(C)(C)C)c1O)CC(C(C)(C)C)O2 (centres unmarked) [Compound h, 2,4,6-Tri-tert-Butyl-5-Hydroxy-2,3-Dihydrobenzofuran] | 10.6 | 74.0 | 9 |  |  |  | 
21 | CCCCC1(CCCC)Cc2c(cc(C(C)(C)C)c(O)c2C(C)(C)C)O1 [Compound f, 4,6-Di-tert-Butyl-2,2-Di-n-Butyl-5-Hydroxy-2,3-Dihydrobenzofuran] | 12.2 | 81.6 | 8 | 91.0 % of control | 102.4 % of control |  | 
22 | CC(C)(C)c1cc2c(c(C(C)(C)C)c1O)CC1(CCCCC1)O2 [Compound n, 4,6-Di-tert-Butyl-5-Hydroxy-2,3-Dihydrobenzofuran-2-Spiro-1'-cyclohexane] | 15.6 | 76.2 | 9 | 100.3 % of control | 104.9 % of control |  | 
23 | CCCCCC1(CCCCC)Cc2c(cc(C(C)(C)C)c(O)c2C(C)(C)C)O1 [Compound x, 4,6-Di-tert-Butyl-2,2-Di-n-Pentyl-5-Hydroxy-2,3-Dihydrobenzofuran] | 42.1 | 96.3 | 5 | 84.5 % of control | 85.6 % of control |  | 
24 | CC(C)C1(C(C)C)Cc2c(cc(C(C)(C)C)c(O)c2C(C)(C)C)O1 [Compound i, 4,6-Di-tert-Butyl-2,2-Di-i-Propyl-5-Hydroxy-2,3-Dihydrobenzofuran] | 10.3 | 90.8 |  |  |  |  | 
25 | CC(C)(C)c1cc2c(c(C(C)(C)C)c1O)CC(CCl)O2 (centres unmarked) [l, 4,6-tert-Butyl-2-Chloromethyl-5-Hydroxy-2,3-Dihydrobenzofuran] | 8.1 | 11.5 |  |  |  |  | 
26 | CCCCCCCCC1Cc2c(cc(C(C)(C)C)c(O)c2C(C)(C)C)O1 (centres unmarked) [Compound g, 4,6-Di-tert-Butyl-5-Hydroxy-2-Octyl-2,3-Dihydrobenzofuran] | 8.8 | 82.6 |  | 88.6 % of control | 104.8 % of control | 97.0 % of control | 76.0 % of control
27 | C=CCOc1cc(C(C)(C)C)c(O)c(C(C)(C)C)c1C [Compound v, 4-Allyloxy-2,6-Di-tert-Butyl-3-Methylphenol] | 80.3 | 99.3 |  |  |  |  | 
28 | CC(C)(C)c1cc2c(c(C(C)(C)C)c1O)CC1(CCCCCCC1)O2 [Compound p, 4,6-Di-tert-Butyl-5-Hydroxy-2,3-Dihydrobenzofuran-2-Spiro-1'-Cyclooctane] | 22.0 | 91.8 |  |  |  |  | 
